According to patent US20040028714A1, “Composition having insect repellent characteristics” (priority 2000, published 2004):
Several values for one entry are separate records, joined by “and”; a condition that tells them apart may be missing. Equal entries are not always repeated.

How the values were obtained:
Type in all cases: in vivo
[1] = tested on: German cockroaches (Blatella Germanica); test: Cockroach repellency screening on partially treated formica surface (Example 2); conditions: 20 mg/m^2 on formica; for Percentage Dead / Percentage Present, Treated Section / Percentage Present, Untreated Section / Percentage Present, Treated Section, Average / Percentage Present, Untreated Section, Average: cockroaches; for Percentage Present, Treated Section, Average / Percentage Present, Untreated Section, Average: average of days 1, 2 and 3; for Number of Cockroaches present, Treated Section / Number of Cockroaches present, Untreated Section / Number of Cockroaches, Dead: single replicates (n = 20); for Number of Cockroaches present, Treated Section, Total / Number of Cockroaches present, Untreated Section, Total / Number of Cockroaches, Dead, Total: total of 4 replicates (80)
Experimental: The effectiveness of compounds of formula I as an insect repellent was determined using German cockroaches exposed to a formica surface partially treated/partially untreated with a test compound of formula I. The study was conducted in an air conditioned laboratory at a temperature of 22°±2° C. under a normal day/night cycle, using German cockroaches (Blatella Germanica) of mixed sex and age. The study was conducted over a 3 day period and the repellent effectiveness assessed 1, 2 and 3 days after cockroach introduction. A rectangle of formica 40 cm×30 cm was treated at 20 mg/m^2 with a test compound of formula I. This was achieved by soaking a paper wipe (Rag on a Roll ca 20 cm×20 cm) in a solution of the test compound in ethanol, squeezing out the excess liquid and wiping over the surface to give the required coverage. This was checked by weighing the cloth after application. The surface was allowed to dry. A similar rectangle was wiped with ethanol alone (untreated surface). The treated formica rectangle was placed on the bench and a plastic container was placed on the rectangle. This had been treated with fluon to prevent cockroach escape. Two sheets of formica (10 cm×10 cm) were placed on the formica, one on the treated surface and one on the untreated surface. This acted as a cockroach harbourage. The formica sheet to be used in the treated section was treated at the same rate as the treated formica. The formica was placed on two 1 cm high bottle tops to allow cockroaches access under the formica. 20 German cockroaches were added (5 adults and 15 nymphs) to the centre of the formica. No food and water was supplied for these cockroaches. At 1, 2 and 3 days after cockroach introduction the number of cockroaches under each harbourage was counted. After each count the harbourage position was change to avoid the possibility of […] were replaced and new cockroaches were added to replace any dead cockroaches. The above was repeated 3 times to provide a total of 4 replicates.

[2] = tested on: Black Ants (Ochetellus sp); test: Ant repellency on half-treated formica (Example 4); conditions: ants, 20 mg/m^2 on formica
Experimental: The effectiveness of compound 2 (example 1) as an insect repellent was determined using ants exposed to a formica surface partially treated/partially untreated with compound 2, and was directly compared to the repellency of the well known insect repellents Farnesol and Dihydrofarnesal.
The study was conducted in an air conditioned laboratory at a temperature of 22°±2° C. under a normal day/night cycle, using Black Ants (Ochetellus sp) of mixed sex and age. The study ws conducted over a 3 day period and the repellent effectiveness assessed 1, 2 and 3 days after ant introduction.
One half of a rectangle of formica 40 cm×30 cm was treated at 20 mg/m^2 with the test compounds. This was achieved by soaking a paper wipe (Rag On A Roll approximately 20 cm×20 cm) in a solution of the test compound in ethanol, squeezing out the excess liquid and wiping over the surface to give the required coverage. This was checked by weighing the cloth after application. The surface was allowed to dry. The other half was wiped with ethanol alone (untreated surface).
The treated formica rectangle was placed on the bench and a glass ring (diameter 20 cm) was placed on the rectangle. This had been treated with fluon to prevent ant escape.
A small plastic container 2 cm in diameter was placed on the formica, one on the treated surface and one on the untreated surface. The plastic container placed on the treated surface had repellent applied in the same way as the treated formica. The plastic container on the untreated surface was wiped with ethanol.
24 hours after treatment (1 day) 20 ants were added to the centre of the formica. No food and water was supplied for these ants. 2 hours after this the number of ants on the treated and untreated surfaces was counted.
The above was repeated 3 times to provide a total of 4 replicates.
The above was repeated at 2 days and 3 days. New ants were used at each time period.

[3] = tested on: German cockroaches (Blatella Germanica); test: Cockroach repellency in tray with half-treated vinyl, compared with DEET and N-methyl-neodecanamide (Example 3); conditions: cockroaches, 20 mg/m^2 on vinyl
Experimental: The effectiveness of compound 2 (example 1) as an insect repellent was determined using German cockroaches exposed to a formica surface partially treated/partially un-treated, and was directly compared to the repellency of the well known insect repellents DEET (N,N-diethyl-meta-toluamide) and N-methyl-neodecanamide. The study was conducted in an air conditioned laboratory at a temperature of 22°±2° C. under a normal day/night cycle, using German cockroaches (Blatella Germanica) of mixed sex and age. The study was conducted over a 7 days period and the repellent effectiveness was assessed 1, 3, 5 and 7 days after cockroach introduction. Each tray used in the study consisted of a melamine square tray of sides 1.8m×1.8m and 20 cm high walls. The upper part of the wall was provided with electrical strip, which prevented cockroaches escaping. A square of vinyl 90 cm×180 cm was treated with the test compound at 20 mg/m^2. This was achieved by soaking a paper wipe (Rag on a Roll, ca. 20 cm×20 cm) in a solution of the test compound in ethanol, squeezing out the excess liquid and wiping over the surface to give the required coverage. This was checked by weighing the cloth after application. The surface was allowed to dry. The treated vinyl square was placed in one half of the tray. A similar untreated square was placed in the other half of the tray. This square was treated with ethanol alone. Two sheets of formica (30 cm×30 cm) were placed at one corner of each tray, one on the treated surface and one on the untreated surface. This acted as a cockroach harbourage. The formica sheet to be used in the treated section was treated at the same rate as the treated formica. The formica was placed on two 1 cm high bottle tops to allow cockroaches access under the formica. 50 German cockroaches were added (15 adults and 35 nymphs) to the middle of the tray. No food and water was supplied for these cockroaches. At 1, 2, 3 and 7 days after cockroach introduction the number of cockroaches under each harbourage was counted. After each count the harbourage position was change to avoid the possibility of habituation to one location, the harbourages were replaced and new cockroaches were added to replace any dead cockroaches. The above was repeated 3 times to provide a total of 4 replicates.

[4] = 1 day after cockroach introduction
[5] = 2 days after cockroach introduction
[6] = 3 days after cockroach introduction

Compound | Percentage Dead ([1]; 1 day after treatment) [%] | Percentage Present, Treated Section ([1]; 1 day after treatment) [%] | Percentage Present, Untreated Section ([1]; 1 day after treatment) [%] | Percentage Dead ([1]; 2 days after treatment) [%] | Percentage Present, Treated Section ([1]; 2 days after treatment) [%] | Percentage Present, Untreated Section ([1]; 2 days after treatment) [%] | Percentage Dead ([1]; 3 days after treatment) [%] | Percentage Present, Treated Section ([1]; 3 days after treatment) [%] | Percentage Present, Untreated Section ([1]; 3 days after treatment) [%] | Percentage Present, Treated Section, Average [1] [%] | Percentage Present, Untreated Section, Average [1] [%] | also measured
CC1CCC(C(C)C)C(C(=O)Nc2ccccc2)C1 (centres unmarked) [Compound 4, N-phenyl-p-menthane-3-carboxamide] | 0 | 46.3 | 53.7 | 0 | 35.0 | 65.0 | 1.2 | 12.5 | 86.3 | 31.3 | 68.3 | –
CC(C)=CCC/C(C)=C/CCC(C)CC=O (centres unmarked) [Dihydrofarnesal, reference compound] | – | – | – | – | – | – | – | – | – | – | – | Percentage Dead ([2]; 1 day after treatment): 0%; Percentage Present, Treated Section ([2]; 1 day after treatment): 20.0%; Percentage Present, Untreated Section ([2]; 1 day after treatment): 80.0%; Percentage Dead ([2]; 2 days after treatment): 0%; Percentage Present, Treated Section ([2]; 2 days after treatment): 21.2%; Percentage Present, Untreated Section ([2]; 2 days after treatment): 78.8%; Percentage Dead ([2]; 3 days after treatment): 0%; Percentage Present, Treated Section ([2]; 3 days after treatment): 12.5%; Percentage Present, Untreated Section ([2]; 3 days after treatment): 87.5%; Percentage Dead, Average ([2]; average of days 1, 2 and 3): 0%; Percentage Present, Treated Section, Average ([2]; average of days 1, 2 and 3): 17.9%; Percentage Present, Untreated Section, Average ([2]; average of days 1, 2 and 3): 82.1%; Percentage Present, Treated Section, Average ([2]; average of days 1, 2 and 3, listed as Dihydrofarnesol): approximately 17%
CNC(=O)C1CC(C)CCC1C(C)C (centres unmarked) [Compound 1, N-methyl-p-menthane-3-carboxamide] | 0 | 18.7 | 81.3 | 1.2 | 16.3 | 82.5 | 1.2 | 13.8 | 85.0 | 16.3 | 82.9 | Number of Cockroaches present, Treated Section [1, 4]: 5 and 3 and 7 and 0; Number of Cockroaches present, Untreated Section [1, 4]: 15 and 17 and 13 and 20; Number of Cockroaches, Dead [1, 4]: 0; Number of Cockroaches present, Treated Section, Total [1, 4]: 15; Number of Cockroaches present, Untreated Section, Total [1, 4]: 65; Number of Cockroaches, Dead, Total [1, 4]: 0; Number of Cockroaches present, Treated Section [1, 5]: 5 (2×) and 3 and 0; Number of Cockroaches present, Untreated Section [1, 5]: 15 and 17 and 14 and 20; Number of Cockroaches, Dead [1, 5]: 0 (3×) and 1; Number of Cockroaches present, Treated Section, Total [1, 5]: 13; Number of Cockroaches present, Untreated Section, Total [1, 5]: 66; Number of Cockroaches, Dead, Total [1, 5]: 1; Number of Cockroaches present, Treated Section [1, 6]: 4 (2×) and 3 and 0; Number of Cockroaches present, Untreated Section [1, 6]: 16 (3×) and 20; Number of Cockroaches, Dead [1, 6]: 0 (3×) and 1; Number of Cockroaches present, Treated Section, Total [1, 6]: 11; Number of Cockroaches present, Untreated Section, Total [1, 6]: 68; Number of Cockroaches, Dead, Total [1, 6]: 1
CCN(CC)C(=O)C1CC(C)CCC1C(C)C (centres unmarked) [Compound 6, N,N-diethyl-p-menthane-3-carboxamide] | 0 | 11.3 | 88.7 | 0 | 13.8 | 86.2 | 2.5 | 6.3 | 91.2 | 10.5 | 88.7 | –
CC1CCC(C(C)C)C(C(=O)N(C)C)C1 (centres unmarked) [Compound 5, N,N-dimethyl-p-menthane-3-carboxamide] | 0 | 15.0 | 85.0 | 1.2 | 10.0 | 88.8 | 1.2 | 15.0 | 83.8 | 13.3 | 85.9 | –
CCCNC(=O)C1CC(C)CCC1C(C)C (centres unmarked) [Compound 3, N-propyl-p-menthane-3-carboxamide] | 0 | 16.3 | 83.7 | 1.2 | 6.3 | 92.5 | 0 | 6.3 | 93.7 | 9.6 | 90.0 | –
CCN(CC)C(=O)c1cccc(C)c1 [DEET, N,N-diethyl-meta-toluamide, reference compound] | – | – | – | – | – | – | – | – | – | – | – | Percentage Dead ([3]; 1 day after treatment): 0.5%; Percentage Present, Treated Section ([3]; 1 day after treatment): 3.0%; Percentage Present, Untreated Section ([3]; 1 day after treatment): 96.5%; Percentage Dead ([3]; 2 days after treatment): 1.5%; Percentage Present, Treated Section ([3]; 2 days after treatment): 2.5%; Percentage Present, Untreated Section ([3]; 2 days after treatment): 96.0%; Percentage Dead ([3]; 3 days after treatment): 0.5%; Percentage Present, Treated Section ([3]; 3 days after treatment): 27.5%; Percentage Present, Untreated Section ([3]; 3 days after treatment): 72.0%; Percentage Dead ([3]; 7 days after treatment): 1.0%; Percentage Present, Treated Section ([3]; 7 days after treatment): 55.0%; Percentage Present, Untreated Section ([3]; 7 days after treatment): 44.0%
